This is an account of results in patent US10435388B2, “Selective inhibitors of clinically important mutants of the EGFR tyrosine kinase” (CS PHARMATECH LIMITED, priority 2016, dated 2019).

Series [1] deals with p-EGFR in H1975 cells (L858R/T790M double mutant EGFR). To be noted: Homo sapiens, NCI-H1975, 2 h, read-out: H1975 IC50 (nM), cellular EGFR autophosphorylation, 2 h treatment, ELISA. (In general: ELISA stands for enzyme-linked immunosorbent assay.)
Description: H1975 cells were cryopreserved in liquid nitrogen. […] Remove the vial from liquid nitrogen and thaw rapidly by placing at 37° C. in a water bath with gentle agitation for 1-2 minutes and then decontaminated by wiping with 70% ethanol before opening in a Class II biological safety cabinet. Transfer the vial contents drop-wise into 10 mL of cell culture medium in a sterile 15 mL conical tube. Then centrifuged the tube at 200× g for 5 minutes and aspirate the supernatant. Re-suspend the cell pellet with 1 mL of fresh cell culture medium and transfer it in to the T75 flask containing cell culture medium.
To passage H1975 cells, firstly, the adherent cells were rinsed with Trypsin/EDTA. Then add Trypsin/EDTA (3 mL for a T75 flask) into the flask and swirl to ensure the cells coated with trypsin evenly. Then incubate the flasks at 37° C. until the cells detach. Add equal volume of cell culture medium to stop the reaction. Collect the detached cells and centrifuged at 200× g for 5 minutes followed by re-suspended in fresh culture medium. Then, the cells were transferred into a new T75 flask containing cell culture medium. Cells were sub-cultured three times per week at a ratio of 1:4 in culture medium.
Harvest cells from flask into cell culture medium and the cell numbers counted using Automated Cell Counter (Thermo Fisher Scientific, Countess™). Dilute the cells into 250,000 cells/mL with culture medium and add 40 μL of cell suspension into each well of 384-well cell culture plate as designated. The final concentration was 10,000 cells/well. The plates were covered with lid and placed in 37° C. 5% CO2 incubator overnight for cell attachment.
On the second day, test compounds were dissolved in DMSO at 10 mM. […] The same volume of DMSO was adopted as high control.
Place the plate back to 37° C. 5% CO2 incubator for 2 hours. Replace the medium of each well with ice-cold HBSS. Then remove the HBSS, add 30 μL cell lysis buffer into each well and shake the plates for 30 mins on a plate shaker. Centrifuge for 5 min at 1,000 rpm to remove bubbles and transfer 25 uL of the lysate supernatant for p-EGFR assay by using a commercial ELISA kit (R&D, DYC1095B-5).
For estimation of IC50, the absorption readout are transformed to % relative activity by applying the following equation
[formula] The IC50 was then calculated by fitting in XLFit (IDBS, Guildford, Surrey) to a four parameters logistic curve.
The next series has as its system H1975 cells (DM). The series can be described thus: H1975 inhibition assay (cell proliferation), Method B. It is filed as cell-based. The conditions noted are these: cellular proliferation, several runs.
Series [2] deals with p-EGFR in A431 cells (wild type EGFR, EGF stimulated). Description: Wild type EGFR A431 autophosphorylation inhibition assay (ELISA). To be noted: Homo sapiens, A-431, cellular EGFR autophosphorylation, 2 h treatment, EGF stimulation 10 min. It is filed as cell-based, human. On the procedure:
(§1) Cellular EGFR Autophosphorylation Assays.
Wild Type EGFR A431 Autophosphorylation Inhibition Assay (ELISA).
After 2 hour treatment with test compounds, add 4.5 μL of EGF (1 μg/mL) into each well and stimulate for 10 min. The rest of the procedure was processed in the same manner as described above for H1975 cells.

The subject of another series is A431 cells (WT). Description: A431 inhibition assay (cell proliferation), Method B. Format: cell-based, human. To be noted: cellular proliferation, several runs. How it is done:
Cell Proliferation Assays—Method B
A431 Inhibition Assay, (Cell Proliferation).
The rest procedure was conducted in the same manner as described above for H1975 cells.

The target in a further series is T1, IGF-1R (Homo sapiens, UniProt P08069).
T1 construct: purchased CARNA BIOSCIENCE 08-141
The series can be described thus: IGF-1R inhibition assay (Caliper EZ Reader). To be noted: enzyme assay. Format: biochemical. Put shortly: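 IGF-1R protein and peptide substrate were preincubated 30 min at RT with compound. Phosphorylated and non-phosphorylated fluorescent peptides were separated by mobility shift, and the read-out is the conversion ratio.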

The subject of a further series is PC9 cells (SM). The series can be described thus: PC-9 growth inhibition assay (cell proliferation), Method B. It is filed as cell-based, human. The conditions noted are these: cellular proliferation, several runs.
For the next series, the target named is T2, INSR (Homo sapiens, UniProt P06213).
T2 construct: purchased CARNA BIOSCIENCE 08-142
The series can be described thus: INSR inhibition assay (Caliper EZ Reader). It is filed as biochemical. To be noted: enzyme assay.

A further series can be described thus: Mouse in vivo PK study. To be noted: male CDI mice; for F: PO 10 mg/kg vs IV 1 mg/kg; for clearance / half-life / AUC / Cmax: mouse, plasma; for clearance / half-life: IV 1 mg/kg; for half-life: read-out: T1/2 (IV) (converted); for AUC / Cmax: PO 10 mg/kg. On the procedure: To determine the drug concentration in plasma of NJB-342, NJB-348 and NJB-463 following intravenous and oral administration in male CDI Mice, to get the pharmacokinetic profile and PK parameters
Test animals: healthy male CDI mice (body weight 20-30 g, 18 mice, free access to food and water), provided by Sibeifu laboratory.
Dose Level and dose route: dosed the animals via intravenous injection from tail vein for IV group (1 mg/kg, 5 mL/kg, 10% DMSO/40% PEG400/50% water), dosed the animals via oral gavage for PO group (10 mg/kg, 10 mL/kg, (10% DMSO/40% PEG400/50% water), respectively.
Samples collection: the healthy animals were used, weighed the bodyweight and marked at tail and cage card prior to dosing. Blood samples (0.03 mL per time point) were collected from dorsal metatarsal vein at 0.083, 0.25, 0.5, 1, 2, 4, 8, 24 h post dose for IV group and at 0.25, 0.5, 1, 2, 4, 8, 24 h post dose for PO group, the terminal time point was collected from heart (˜0.3 mL). The blood samples were put into the tube with heparin-Na coated and then put on the cold box, centrifuged at 4° C. 4000 g, 5 minutes immediately after collecting all samples per time point to get plasma. The plasma samples were stored in a freezer at −75±15° C. prior to analysis.

Series [3] concerns p-EGFR in PC9 cells (Exon 19 deletion EGFR). Description: Exon19 deletion EGFR (activating single mutant) PC-9 cellular autophosphorylation assay. To be noted: Homo sapiens, PC-9, 2 h, 2 h treatment, ELISA. Format: cell-based, human. How it is done: as §1
The human lung cell line PC9 (Exon 19 deletion EGFR) is obtained from the American type Culture Collection. […] Cells are grown in a humidified incubator at 37° C. with 5% CO2, Assays to measure cellular phosphorylation of endogenous p-EGFR in cell Iysates are carried out according to the protocol described in the R&D Systems DuoSet IC Human Phospho-EGF R ELISA (R&D Systems catalogue number #DYCI095). 40 μL of cells are seeded (10000 cells/well) in growth medium in Corning black, clear-bottomed 384-well plates and incubated at 37° C., with 5%0/CO2 overnight. […] Plates are incubated for a further 2 h, then following aspiration of medium, 40 μL×lysis buffer is added to each well. Greiner black high bind 384 well plates are coated with capture antibody and then blocked with 3% BSA. Following removal of block, 15 μL of lysate are transferred to the Greiner black high bind 384 well plates and incubated for 2 hours. Following aspiration and washing of the plates with PBS, 20 μL of detection antibody are added and incubated for 2 hours. […] The data obtained with each compound are exported into a suitable software package (such as Origin) to perform curve fitting analysis.

“And” between values parts separate entries of the source, which are not always exact repeats. Equal values may be shown once. Where a name gives a salt, the structure may show the parent alone.

T2 sequence (P06213 989-1382 limits assumed): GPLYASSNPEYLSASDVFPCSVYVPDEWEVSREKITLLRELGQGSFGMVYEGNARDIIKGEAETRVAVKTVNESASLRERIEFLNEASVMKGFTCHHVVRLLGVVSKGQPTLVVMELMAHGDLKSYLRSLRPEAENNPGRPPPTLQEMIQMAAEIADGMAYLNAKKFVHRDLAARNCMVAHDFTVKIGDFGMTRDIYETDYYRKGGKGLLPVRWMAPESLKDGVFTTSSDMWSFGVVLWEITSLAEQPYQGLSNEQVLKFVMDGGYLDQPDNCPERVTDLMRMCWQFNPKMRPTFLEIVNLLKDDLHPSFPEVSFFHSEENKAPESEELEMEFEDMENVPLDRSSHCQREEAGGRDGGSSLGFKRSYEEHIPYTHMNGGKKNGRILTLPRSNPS
T1 sequence (P08069 959-1367 limits assumed): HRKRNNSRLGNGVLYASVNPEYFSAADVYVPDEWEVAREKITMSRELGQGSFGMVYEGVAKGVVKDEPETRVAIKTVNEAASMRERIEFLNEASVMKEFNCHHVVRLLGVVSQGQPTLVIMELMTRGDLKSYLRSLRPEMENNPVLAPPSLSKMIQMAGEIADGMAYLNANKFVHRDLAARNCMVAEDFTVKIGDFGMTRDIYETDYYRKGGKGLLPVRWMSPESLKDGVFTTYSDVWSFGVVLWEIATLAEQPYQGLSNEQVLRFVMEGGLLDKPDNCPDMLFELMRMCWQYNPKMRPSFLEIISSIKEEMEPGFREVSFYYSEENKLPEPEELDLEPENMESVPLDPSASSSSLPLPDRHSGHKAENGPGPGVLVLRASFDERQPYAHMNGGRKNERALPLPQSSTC

Broadly, the IC50 is the concentration that gives 50% inhibition. Usually clearance stands for the volume of plasma or blood freed of the substance per unit of time. A high value points to a high capacity for elimination. One may read the AUC as the area under the concentration-time curve, a measure of exposure. Read a high AUC as more exposure. Usually Cmax stands for the peak of the concentration-time curve. On to `C=CC(=O)Nc1cc(Nc2nccc(-n3nc(N(C)C)c4ccccc43)n2)c(OC)cc1N(C)CCN(C)C` [Example 42, N-(5-((4-(3-(Dimethylamino)-1H-indazol-1-yl)pyrimidin-2-yl)amino)-2-((2-(dimethylamino)ethyl)(methyl)amino)-4-methoxyphenyl) acrylamide], for which the IC50 in series [1] turned out to be 4.19 nM; in the series on H1975 cells (DM) (Homo sapiens, NCI-H1975, 72 h), 2.37 nM; in series [2], 66.3 nM; with A431 cells (WT) (Homo sapiens, A-431, 72 h) it was 396 nM; on IGF-1R, 337 nM; with PC9 cells (SM) (Homo sapiens, PC-9, 72 h), 2.29 nM. Further, the IC50 was determined as 366 nM on INSR and 3.69 nM in series [3]. This molecule also gave a F in “Mouse in vivo PK study” of 42.1%. This molecule also returned a clearance in the series “Mouse in vivo PK study” of 97 mL/min/kg. Moreover, the half-life in “Mouse in vivo PK study” was 1.32 h. The molecule further yielded an exposure (AUC) in the series “Mouse in vivo PK study” of 677 ng·h/mL. In addition, in the series “Mouse in vivo PK study”, the Cmax is 176 ng/mL.

For the molecule `C=CC(=O)Nc1cc(Nc2nccc(-n3nc(NC)c4ccccc43)n2)c(OC)cc1N(C)CCN(C)C` [Example 21, N-(2-((2-(Dimethylamino)ethyl)(methyl)amino)-4-methoxy-5-(4-(3-(methylamino)-1H-indazol-1-yl)pyrimidin-2-ylamino)phenyl) acrylamide], the IC50 with H1975 cells (DM) (Homo sapiens, NCI-H1975, 72 h) was 2.37 nM; in the series with H1975 cells (DM) (72 h) it was 2.01 nM and 2.9 nM; against IGF-1R, 180 nM; with PC9 cells (SM) (Homo sapiens, PC-9, 72 h) it was 2.54 nM; in the series with PC9 cells (SM) (72 h), 2.33 nM and 4.49 nM; at INSR, 134 nM. Further, in the series “Mouse in vivo PK study”, the F stood at 27.2%. The molecule further returned a clearance in “Mouse in vivo PK study” of 163 mL/min/kg. Further, the half-life in the series “Mouse in vivo PK study” was 0.73 h. The molecule also returned an AUC in “Mouse in vivo PK study” of 282 ng·h/mL. This molecule also displayed a Cmax in the series “Mouse in vivo PK study” of 86 ng/mL.

For the molecule `C=CC(=O)Nc1cc(Nc2nccc(-c3cc(C(N)=O)cc4c3ccn4C)n2)c(OC)cc1N(C)CCN(C)C` [Example 34, 4-(2-((5-Acrylamido-4-((2-(dimethylamino)ethyl)(methyl)amino)-2-methoxyphenyl)amino)pyrimidin-4-yl)-1N-methyl-1H-indole-6-carboxamide hydrochloride], the IC50 was determined as 2.19 nM in series [1]; 4.62 nM with H1975 cells (DM) (Homo sapiens, NCI-H1975, 72 h); 3.23 nM with H1975 cells (DM) (72 h, hydrochloride); 400 nM in series [2]; 1770 nM in the series with A431 cells (WT) (Homo sapiens, A-431, 72 h); 928 nM in the series on A431 cells (WT) (72 h, hydrochloride). The IC50 at IGF-1R was determined as 470 nM; in the series on PC9 cells (SM) (Homo sapiens, PC-9, 72 h), 7.23 nM; with PC9 cells (SM) (72 h, hydrochloride) it was 10.9 nM; at INSR it was 514 nM; in [3], 7.14 nM. For the same molecule, the F in the series “Mouse in vivo PK study” was determined as 10.3%. For the same molecule, the clearance in the series “Mouse in vivo PK study” came out at 110 mL/min/kg. Moreover, the half-life in “Mouse in vivo PK study” was 1.11 h. The molecule also showed an AUC in “Mouse in vivo PK study” of 165 ng·h/mL. Also, the highest level in the series “Mouse in vivo PK study” (Cmax) was 58 ng/mL.
